# Experiments:
# [1] = molecular target: T1, vanilloid receptor 1 (VR1/TRPV1) of the rat species (Rattus norvegicus, UniProt O35433); assay: FLIPR Ca2+ influx assay on rat dorsal root ganglia cells, capsaicin stimulus (Pharmacological method I); format: cell-based; conditions: Ki by Cheng-Prusoff
# T1 construct: The spinal column is removed from decapitated rats; endogenous in cells; host or cells: primary cells dissociated from rat dorsal root ganglia, cultured 2-3 days with NGF
# From the text: I. Functional Investigation on Vanilloid Receptor 1 (VR1/TRPV1 Receptor)
# (§1) The agonistic or antagonistic action of the substances to be investigated on the vanilloid receptor 1 (VR1/TRPV1) of the rat species may be determined with the following assay. According to this assay, the influx of Ca^2+ through the receptor channel is quantified with the assistance of a Ca^2+-sensitive dye (type Fluo-4, Molecular Probes Europe BV, Leiden, Netherlands) in a Fluorescent Imaging Plate Reader (FLIPR, Molecular Devices, Sunnyvale, USA).
# Complete medium: 50 mL HAMS F12 Nutrient Mixture (Gibco Invitrogen GmbH, Karlsruhe, Germany) with 10 vol. % FCS (foetal calf serum, Gibco Invitrogen GmbH, Karlsruhe, Germany, heat-inactivated); 2 mM L-glutamine (Sigma, Munich, Germany); 1 wt. % AA solution (antibiotic/antimycotic solution, PAA, Pasching, Austria) and 25 ng/ml NGF medium (2.5 S, Gibco Invitrogen GmbH, Karlsruhe, Germany)
# Cell culture plate: poly-D-lysine-coated, black 96-hole plates with clear base (96 well black/clear plate, BD Biosciences, Heidelberg, Germany) are additionally coated with laminin (Gibco Invitrogen GmbH, Karlsruhe, Germany), by diluting laminin to a concentration of 100 μg/mL with PBS (Ca—Mg-free PBS, Gibco Invitrogen GmbH, Karlsruhe, Germany). Aliquots with a concentration of 100 μg/mL of laminin are taken and stored at −20° C. The aliquots are diluted with PBS in the ratio of 1:10 to 10 μg/mL of laminin and 50 μL of the solution is pipetted into each well of the cell culture plate. The cell culture plates are incubated for at least two hours at 37° C., the supernatant solution is aspirated and the wells are each washed twice with PBS. […]
# The spinal column is removed from decapitated rats and this is placed directly in cold HBSS buffer (Hank's buffered saline solution, Gibco Invitrogen GmbH, Karlsruhe, Germany), i.e. located in an ice bath, combined with 1 vol. % (percent by volume) of an AA solution (antibiotic/antimycotic solution, PAA, Pasching, Austria). […] The resultant pellet is in each case redissolved in 250 μL of complete medium and the cell count is determined. […]
# VR1/TRPV1 receptor = VR1/TRPV1 receptor (Homo sapiens, UniProt Q8NER1); assay: Inhibition of human VR1/TRPV1 following pH-stimulus; format: cell-based; conditions: ne = no effect, no response observed
# Chain of VR1/TRPV1 receptor (Q8NER1 whole entry): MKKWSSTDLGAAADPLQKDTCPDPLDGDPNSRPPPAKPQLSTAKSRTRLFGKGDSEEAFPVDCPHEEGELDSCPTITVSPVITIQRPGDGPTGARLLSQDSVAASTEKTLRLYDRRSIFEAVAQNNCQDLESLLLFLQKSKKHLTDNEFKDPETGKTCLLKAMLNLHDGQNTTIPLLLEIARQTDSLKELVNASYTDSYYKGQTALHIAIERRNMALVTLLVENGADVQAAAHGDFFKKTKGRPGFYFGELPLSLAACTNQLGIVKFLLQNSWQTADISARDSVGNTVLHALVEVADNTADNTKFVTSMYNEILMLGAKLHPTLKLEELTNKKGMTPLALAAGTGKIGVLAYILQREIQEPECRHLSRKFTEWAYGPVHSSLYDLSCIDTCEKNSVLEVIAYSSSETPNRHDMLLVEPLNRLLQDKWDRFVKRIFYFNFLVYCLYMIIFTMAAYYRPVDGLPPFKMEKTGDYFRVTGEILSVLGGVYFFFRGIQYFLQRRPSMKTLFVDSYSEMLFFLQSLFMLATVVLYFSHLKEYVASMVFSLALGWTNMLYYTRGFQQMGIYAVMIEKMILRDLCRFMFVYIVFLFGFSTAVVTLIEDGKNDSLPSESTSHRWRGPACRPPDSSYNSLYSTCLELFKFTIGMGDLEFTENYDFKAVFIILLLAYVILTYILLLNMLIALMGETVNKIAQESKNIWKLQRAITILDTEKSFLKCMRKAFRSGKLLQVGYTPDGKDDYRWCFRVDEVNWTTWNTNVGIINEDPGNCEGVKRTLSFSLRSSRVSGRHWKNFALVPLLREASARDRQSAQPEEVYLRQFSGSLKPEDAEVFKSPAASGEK
# [2] = molecular target: T2, vanilloid receptor (VR1), human VR1 gene (Homo sapiens, UniProt Q8NER1); assay: FLIPR Ca2+ influx assay on CHO K1 cells transfected with the VR1 gene, capsaicin stimulus (Pharmacological method II); format: cell-based; conditions: human, Ki by Cheng-Prusoff, ne = no effect, no response observed
# T2 construct: expressed in transfected cells; host or cells: CHO K1 cells (ECACC), stably transfected
# T2 sequence (Q8NER1 whole entry): as above
# Experimental: In addition, compounds according to the invention of the general formulae I, Ia, Ib, Ic, and Id, may be preferred which in the FLIPR assay with CHO K1 cells, which have been transfected with the human VR1 gene, in a concentration of less than 2000 nM, preferably of less than 1000 nM, particularly preferably of less than 300 nM, very particularly preferably of less than 100 nM, still more preferably of less than 75 nM, further preferably of less than 50 nM and most preferably of less than 10 nM, bring about a 50 percent displacement of capsaicin, which is present in a concentration of 100 nM. In this FLIPR assay, the influx of Ca^2+ is quantified with the assistance of a Ca^2+-sensitive dye (type Fluo-4, Molecular Probes Europe BV, Leiden, Netherlands) in a Fluorescent Imaging Plate Reader (FLIPR, Molecular Devices, Sunnyvale, USA) as described below.
# II. Functional Investigations on Vanilloid Receptor (VR1)
# as §1, with “(VR1)” for “1 (VR1/TRPV1) of the rat species”, “may also” for “may”, “the” for “the receptor”
# Chinese hamster ovary cells (CHO K1 cells, European Collection of Cell Cultures (ECACC), Great Britain) are stably transfected with the VR1 gene. For functional investigations, these cells are plated out onto poly-D-lysine-coated, black 96-hole plates with a clear base (BD Biosciences, Heidelberg, Germany) at a density of 25,000 cells/hole. The cells are incubated overnight at 37° C. and 5% CO2 in a culture medium (Ham's Nutrient Mixture F12, 10 vol. % FCS (foetal calf serum), 18 μg/mL L-proline). On the following day, the cells are incubated with Fluo-4 (Fluo-4 2 μM, Pluronic F127 0.01 vol. %, Molecular Probes in HBSS (Hank's buffered saline solution), Gibco Invitrogen GmbH, Karlsruhe, Germany) for 30 minutes at 37° C. The plates are then washed 3 times with HBSS buffer and, after a further 15 minutes' incubation at room temperature, used for Ca^2+ measurement in the FLIPR. Ca^2+-dependent fluorescence is here measured before and after the addition of the substances to be investigated (wavelength λex=488 nm, λem=540 nm).
# Quantification proceeds by measuring the highest fluorescence intensity (FC, fluorescence counts) over time.
# The FLIPR protocol consists of 2 additions of substance. The substances to be tested (10 μM) are firstly pipetted onto the cells and Ca^2+ influx is compared with the control (capsaicin 10 μM) (% activation relative to the Ca^2+ signal after addition of 10 μM of capsaicin). After 5 minutes' incubation, 100 nM of capsaicin are added and the influx of Ca^2+ is likewise determined.
# The percentage inhibition in comparison with the maximum achievable inhibition with 10 μM capsaicin is calculated.
# On the basis of the percentage displacement by different concentrations of the compounds to be tested of the general formula I, IC50 inhibition concentrations which bring about 50% displacement of capsaicin were calculated. Ki values for the test substances were obtained by conversion using the Cheng-Prusoff equation (Cheng, Prusoff; Biochem. Pharmacol. 22, 3099-3108, 1973).
# male mice (NMRI) = assay: Formaldehyde test in mice; format: in vivo; conditions: 0.3 per os (dose unit not given), second phase
# Experimental: III. b. Formaldehyde Test in Mice
# The investigation for determining the antinociceptive action of the compounds according to the invention is performed using the formaldehyde test on male mice (NMRI, 20 to 30 g body weight, Iffa, Credo, Belgium).
# In the formaldehyde test, according to D. Dubuisson et al., Pain 1977, 4, 161-174 a distinction is drawn between the first (early) phase (0 to 15 minutes after the formaldehyde injection) and the second (late) phase (15 to 60 minutes after the formaldehyde injection). […]
# Then, the nociceptive behaviour of the animals is observed and recorded continuously for an investigation period of three minutes in the second (late) phase of the formaldehyde test (21 to 24 minutes after the formaldehyde injection). Quantification of the pain behaviour proceeds by summation of the seconds in which the animals licked and bit the relevant paw during the investigation period.
# The comparison is made in each case with control animals, which, instead of compounds according to the invention, received vehicle (0.9% aqueous sodium chloride soln.) before administration of the formaldehyde. On the basis of the quantification of the pain behaviour, the substance effect in the formaldehyde test is determined in percent as a change compared with the corresponding control. […]
# T1 sequence (O35433 whole entry): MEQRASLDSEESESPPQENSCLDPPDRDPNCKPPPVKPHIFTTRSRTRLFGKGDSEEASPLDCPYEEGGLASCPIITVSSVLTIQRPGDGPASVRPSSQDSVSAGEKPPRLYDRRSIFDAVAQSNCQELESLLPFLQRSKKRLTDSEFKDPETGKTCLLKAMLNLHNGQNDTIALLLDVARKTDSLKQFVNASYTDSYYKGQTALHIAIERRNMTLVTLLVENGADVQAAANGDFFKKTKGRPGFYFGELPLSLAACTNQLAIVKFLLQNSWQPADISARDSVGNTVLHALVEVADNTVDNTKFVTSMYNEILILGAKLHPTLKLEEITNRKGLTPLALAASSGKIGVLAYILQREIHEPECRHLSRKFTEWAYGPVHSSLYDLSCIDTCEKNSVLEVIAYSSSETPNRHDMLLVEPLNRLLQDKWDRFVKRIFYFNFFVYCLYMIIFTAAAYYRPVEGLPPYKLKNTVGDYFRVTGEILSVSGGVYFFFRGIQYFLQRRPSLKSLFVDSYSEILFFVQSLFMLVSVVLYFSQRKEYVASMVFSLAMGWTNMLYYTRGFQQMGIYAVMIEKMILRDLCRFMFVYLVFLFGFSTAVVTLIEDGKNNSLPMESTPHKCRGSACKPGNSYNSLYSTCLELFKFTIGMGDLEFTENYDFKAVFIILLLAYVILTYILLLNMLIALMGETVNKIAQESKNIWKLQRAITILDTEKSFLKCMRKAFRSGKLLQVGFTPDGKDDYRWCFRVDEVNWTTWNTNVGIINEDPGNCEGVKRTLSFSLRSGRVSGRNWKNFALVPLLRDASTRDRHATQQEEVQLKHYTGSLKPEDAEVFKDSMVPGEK
Compound,Ki [1] [nM],IC50 (Human) following pH-stimulus (VR1/TRPV1 receptor),Ki [2] [nM],Inhibition Formaldehyde test (male mice (NMRI))
"CC1CCN(c2nc(C(F)(F)F)ccc2CNC(=O)Cc2ccc3c(c2)OCCO3)CC1 [Example 58, 2-(2,3-dihydrobenzo[b][1,4]dioxin-6-yl)-N-((2-(4-methylpiperidin-1-yl)-6-(trifluoromethyl)pyridin-3-yl)methyl)acetamide]",60,ne,27.8,
"CC1CCN(c2nc(C(F)(F)F)ccc2CNC(=O)C(C)c2ccc3[nH]cnc3c2)CC1 (stereo not drawn) [Example 13, 2-(1H-benzoimidazol-5-yl)-N-(4-methyl-6′-trifluoromethyl-3,4,5,6-tetrahydro-2H-[1,2′]bipyridinyl-3′-ylmethyl)-propionamide]",,Ne,7,0.3 per os 25%
"CCCCOc1nc(C(C)(C)C)ccc1CNC(=O)C(C)c1ccc2[nH]cnc2c1 (stereo not drawn) [Example 23, 2-(1H-benzoimidazol-5-yl)-N-(2-butoxy-6-tert.-butyl-pyridin-3-ylmethyl)-propionamide]",,Ne,15.3,0.3 per os 13%
"CC1CCN(c2nc(C(F)(F)F)ccc2CNC(=O)C(C)c2ccc3c(c2)OCO3)CC1 (stereo not drawn) [Example 60, 2-(benzo[d][1,3]dioxol-5-yl)-N-((2-(4-methylpiperidin-1-yl)-6-(trifluoromethyl)pyridin-3-yl)methyl)propanamide]",45.8,ne,26,
"O=C(Cc1ccc2c(c1)OCCO2)NCc1ccc(C(F)(F)F)nc1SC1CCCCC1 [Example 59, N-((2-(cyclohexylthio)-6-(trifluoromethyl)pyridin-3-yl)methyl)-2-(2,3-dihydrobenzo[b][1,4]dioxin-6-yl)acetamide]",5.7,ne,3.5,
